Experimental data as given in PubChem BioAssay (NCI).
Values joined by “and” are separate entries in the source; they are usually repeats but may differ in a detail not shown here. Equal values may be shown once.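 Where inhibition never reached the appropriate level, the endpoint shown equals the highest concentration tested. Otherwise, values were interpolated linearly from a five-concentration, 48-hour dose response in 96-well plates. GI50 marks 50% less growth. TGI marks complete inhibition of growth.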

Experiments:
Test in all cases: NCI-60 cell line screen, 48 h
OVCAR-8 ovarian = test system: OVCAR-8 ovarian
HCT-116 colon = test system: HCT-116 colon
PC-3 prostate = test system: PC-3 prostate
NCI-H23 lung = test system: NCI-H23 lung
SF-539 CNS = test system: SF-539 CNS
BT-549 breast = test system: BT-549 breast
HCT-15 colon = test system: HCT-15 colon
NCI-H460 lung = test system: NCI-H460 lung
HL-60(TB) leukemia = test system: HL-60(TB) leukemia
SK-MEL-2 melanoma = test system: SK-MEL-2 melanoma

Structure (SMILES)	GI50 (OVCAR-8 ovarian)	TGI (OVCAR-8 ovarian)	GI50 (HCT-116 colon)	TGI (HCT-116 colon)	GI50 (PC-3 prostate)	TGI (PC-3 prostate)	GI50 (NCI-H23 lung)	TGI (NCI-H23 lung)	GI50 (SF-539 CNS)	TGI (SF-539 CNS)	GI50 (BT-549 breast)	TGI (BT-549 breast)	GI50 (HCT-15 colon)	TGI (HCT-15 colon)	GI50 (NCI-H460 lung)	TGI (NCI-H460 lung)	GI50 (HL-60(TB) leukemia)	TGI (HL-60(TB) leukemia)	GI50 (SK-MEL-2 melanoma)	TGI (SK-MEL-2 melanoma)
CO[C@H]1/C=C/C[C@H](C)[C@@H](C)S(=O)(=O)NC(=O)c2ccc3c(c2)N(C[C@@H]2CC[C@H]21)C[C@@]1(CCCc2cc(Cl)ccc21)CO3	3.72 µM	14.4 µM	2.75 µM	8.35 µM	1.98 µM	6.23 µM	1.58 µM	4.12 µM	1.85 µM	4.55 µM	2.23 µM	6.99 µM	2.54 µM	8.43 µM	1.99 µM	4.17 µM	0.246 µM	0.655 µM	0.321 µM	1.43 µM
CN(C)CCN1C(=O)c2cccc3c(-c4ccc5ncn(C6CCCCC6)c5c4)ccc(c23)C1=O	1.21 µM	9.76 µM	0.422 µM	10.9 µM	1.63 µM	5.75 µM	1.35 µM	3.82 µM	2.19 µM	9.03 µM	3.95 µM	16.2 µM	1.34 µM	10.6 µM	1.01 µM	7.41 µM	2.18 µM	10.5 µM	2.19 µM	7.32 µM
C=C1C(=O)O[C@H]2[C@H]1CC/C(COC(=O)NCc1cccc(OC)c1)=C\CC[C@@]1(C)O[C@@H]21	2.03 µM	5.63 µM	1.27 µM	2.76 µM	2.26 µM	6.07 µM	3.07 µM	10.3 µM	1.55 µM	2.98 µM	1.51 µM	3.21 µM	1.38 µM	2.82 µM	3.3 µM	13.4 µM	1.21 µM	4.51 µM	11.4 µM	25 µM
NCCCn1c2c(c3ccc([N+](=O)[O-])cc3c1=O)C(=O)c1cc(Cl)ccc1-2	< 0.01 µM	0.109 µM	< 0.01 µM	0.0182 µM	< 0.0163 µM	0.381 µM	< 0.01 µM	0.055 µM	< 0.01 µM	0.0613 µM	0.0635 µM	1.4 µM	0.0285 µM	0.208 µM	< 0.01 µM	0.128 µM	< 0.01 µM	< 0.016 µM	0.113 µM	0.275 µM
CN1CCN(c2ccc([N+](=O)[O-])c3no[n+]([O-])c23)CC1	0.145 µM	1.75 µM and 0.34 µM	0.152 µM	1.63 µM and 0.634 µM	0.412 µM	2.21 µM and 1.94 µM	0.173 µM	0.389 µM and 1.02 µM	0.246 µM	0.722 µM and 0.733 µM	0.841 µM	4.64 µM and 2.12 µM	0.227 µM	2.15 µM and 1.21 µM	0.118 µM	1.17 µM and 0.764 µM	0.0322 µM	0.157 µM and 0.155 µM	0.468 µM	3.01 µM and 1.66 µM
CCOC(=O)c1cn2ncnc(Oc3ccc(NC(=O)NCCN(CC)CC)c(Cl)c3)c2c1C	5.66 µM	> 100 µM	2 µM	4.75 µM	3.22 µM	15 µM	10.4 µM	26 µM	1.76 µM	3.45 µM	4.96 µM	19.5 µM	1.84 µM	4.07 µM	9.1 µM	24.4 µM	1.81 µM	4.07 µM	2.36 µM	5.38 µM
C[C@@H]1CCC2[C@@H](C)[C@H](OC(=O)CCC(=O)NCCNC(=O)Cc3cc(=O)oc4cc(N(C)C)ccc34)O[C@@H]3O[C@]4(C)CC[C@@H]1C23OO4 (stereo not given in full)	0.906 µM	> 47.8 µM	0.323 µM	12.8 µM	0.189 µM	> 100 µM	0.749 µM	46.6 µM	3.22 µM	24.3 µM	3.07 µM	> 100 µM	0.318 µM	21 µM	2.43 µM	19.2 µM	0.301 µM	6.77 µM	5.4 µM	> 43.7 µM
c1ccc([P+](CCC[P+](c2ccccc2)(c2ccccc2)c2ccccc2)(c2ccccc2)c2ccccc2)cc1	10.5 µM	> 100 µM	7.27 µM	> 100 µM	3.26 µM	81.1 µM	18.8 µM	> 100 µM	15.1 µM	> 100 µM	7.44 µM	> 100 µM	> 100 µM	> 100 µM	9.03 µM	> 100 µM	2.27 µM	36.9 µM and 6.75 µM	8.44 µM	40 µM
Cc1[nH]ccc2cc3nc4ccccc4c3cc12	1.72 µM	11.7 µM	0.667 µM	2.38 µM	2.46 µM	11.7 µM	2.55 µM	14.5 µM	3.07 µM	12.6 µM	2.74 µM	13.3 µM	1.84 µM	5.9 µM	1.39 µM	3.52 µM	3.48 µM	14.9 µM	5.17 µM	16.5 µM
C#CCOc1cccc(Nc2ncnc3c2ncn3C2CCN(C(=O)CCl)C2)c1 (stereo not given)	30.7 µM	> 100 µM	22.7 µM	59.8 µM	22.6 µM	53 µM	18.4 µM	41.3 µM	17.7 µM	32.4 µM	12.1 µM	26.6 µM	16.5 µM	39.6 µM	43.2 µM	> 100 µM	19.4 µM	41.8 µM	25.7 µM	94.9 µM
CSc1ccc(C(=O)/C=C/c2ccc(F)cc2)cc1	> 100 µM	> 100 µM	20.7 µM	36.6 µM	49.9 µM	> 100 µM	> 100 µM	> 100 µM	49.6 µM	> 100 µM	40 µM	> 100 µM	29.4 µM	> 100 µM	70.2 µM	> 100 µM	48.9 µM	> 100 µM	> 100 µM	> 100 µM
CCN1CCN(c2nc(C)cc(N(CCCNc3ccnc4cc(Cl)ccc34)Cc3ccco3)n2)CC1	4.08 µM	19.5 µM	2.05 µM	10.9 µM	6.87 µM	22 µM	9.9 µM	27 µM	1.75 µM	3.46 µM	2.03 µM	5.99 µM	2.34 µM	11.6 µM	3.73 µM	12.9 µM	2.11 µM	5.08 µM	1.94 µM	3.92 µM
O=C(O)CCc1nc(-c2ccccc2)c(-c2ccccc2)o1	–	> 100 µM	–	> 100 µM	–	> 100 µM	–	> 100 µM	–	> 100 µM	–	> 100 µM	–	> 100 µM	–	> 100 µM	–	> 100 µM	–	> 100 µM
COc1ccc(-c2cc3nccn3c(Nc3ncccc3C(N)=O)n2)cc1OC	0.955 µM	> 100 µM	0.516 µM	> 47.4 µM	> 100 µM	> 100 µM	> 39.2 µM	> 100 µM	5.86 µM	> 100 µM	0.886 µM	> 100 µM	0.659 µM	> 100 µM	2.19 µM	> 100 µM	2.13 µM	24.2 µM	0.824 µM	> 100 µM
CC(C)(C)n1cc(-c2ccnc(NCCCNS(=O)(=O)c3ccc(Cl)cc3)c2)c(-c2cccc(O)c2)n1	2.22 µM	5.81 µM	1.67 µM	3.22 µM	1.36 µM	3.69 µM	1.68 µM	3.48 µM	1.65 µM	3.14 µM	1.67 µM	3.16 µM	1.52 µM	3.35 µM	1.94 µM	3.92 µM	2.51 µM	6.37 µM	1.92 µM	3.89 µM
CCCCCCCCCCC(CN(CC)CC)C(O)c1ccccc1 (stereo not given)	2.37 µM	5.83 µM	1.72 µM	3.37 µM	1.62 µM	3.13 µM	1.93 µM	3.74 µM	1.72 µM	3.3 µM	2.02 µM	4.21 µM	1.31 µM	2.77 µM	1.88 µM	3.5 µM	2.13 µM	5.04 µM	2.31 µM	5.45 µM
